# Laboratory results as given in patent publication US6432655B1, “Method of obtaining compositions” (Synaptic Pharmaceutical Corporation, priority 1992, dated 2002).
# Where two headings read alike, the source gives them in different places.
# Legend:
# [1] = target: T1, human 5-HT4B receptor (clone hp78a) (Homo sapiens, UniProt P34969); test: [3H]5-HT radioligand binding to membranes of Cos-7 cells transiently expressing clone hp78a
# T1 construct: The entire coding region of the human 5-HT4B receptor (1338 bp); expressed in transfected cells; host or cells: Cos-7 (monkey kidney), transient, plasmid hp78a/EXJ (pcEXV-5HT4B)
# [2] = target: T2, human 5-HT4B receptor (Homo sapiens, UniProt P34969); test: cAMP formation in intact, transiently transfected Cos-7 cells; format: cell-based; conditions: for activity at the clone hp78a receptor: compounds used to define the classical 5-HT4 receptor; for stimulation of basal cAMP release: 1 μM
# T2 construct: The entire coding region of the human 5-HT4B receptor (1338 bp); expressed in transfected cells
# [3] = target: T2, human 5-HT4B receptor; test: cell-based; format: cell-based; conditions: for Emax* (% 5-HT RESPONSE): normalized to the 5-HT maximal response; for Kb: dissociation constant of antagonist, KB = [B]/(A′/A) − 1], read-out: KB
# [4] = target: T3, 5-HT4B receptor (Rattus norvegicus, UniProt P32305); test: [3H]5-CT receptor autoradiography on rat brain sections; format: binding
# T3 construct: from tissue; host or cells: rat brain cryostat sections (20 µm)
# [5] = test system: 5-HT receptor present in glial membranes; conditions: Fillion et al., 1980, property shared with hp78a, cited from earlier work
# [6] = test system: 5-HT receptors on NCB20 cells; conditions: Berry-Kravis and Dawson, 1983; read-out: affinity of [3H]-5-HT; cited from earlier work
# [7] = target: 5-HT receptor present in glial membranes; conditions: Fillion et al., 1980; property shared with hp78a; read-out: equilibrium dissociation constant Kd; cited from earlier work
# [8] = test system: untransfected or mock-transfected Cos-7 cells; test: cAMP in untransfected or mock-transfected Cos-7 cells; format: cell-based, monkey; conditions: 1 μM
# Protocol: Both the 5-HT-mediated inhibition and stimulation of cAMP levels were evaluated in these three intact cell preparations. Intracellular cAMP formation was measured by radioimmunoassay (cAMP Radioimmunoassay kit, Advanced Magnetics, Cambridge, Mass.) using methodology outlined by Zgombick et al. (1991). Radioactivity was quantitatied using a Packard COBRA Auto Gamma Counter (equipped with data reduction software).
# [9] = 5 nM [3H]5-HT, seven concentrations of competitor, 30 min at 37° C., mean ± S.E.M., 2-5 determinations, read-out: Ki (apparent dissociation constants for clone hp78a)
# [10] = read-out: Ki (apparent dissociation constants for clone hp78a)
# T2 sequence (P34969 1-445 isoform P34969-2): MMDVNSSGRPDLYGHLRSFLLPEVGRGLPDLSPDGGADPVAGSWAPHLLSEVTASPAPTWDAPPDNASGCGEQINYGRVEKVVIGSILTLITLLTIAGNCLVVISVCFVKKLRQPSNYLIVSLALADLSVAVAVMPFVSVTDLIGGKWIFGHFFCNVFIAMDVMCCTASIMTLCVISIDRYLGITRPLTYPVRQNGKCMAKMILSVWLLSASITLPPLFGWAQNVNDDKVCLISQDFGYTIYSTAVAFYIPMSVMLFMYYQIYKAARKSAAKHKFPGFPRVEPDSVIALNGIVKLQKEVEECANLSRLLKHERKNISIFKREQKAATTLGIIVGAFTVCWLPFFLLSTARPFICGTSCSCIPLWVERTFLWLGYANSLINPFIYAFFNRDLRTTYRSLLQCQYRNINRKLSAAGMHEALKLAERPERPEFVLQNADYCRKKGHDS
# T1 sequence (P34969 1-445 isoform P34969-2): as above
# T3 sequence (P32305 whole entry): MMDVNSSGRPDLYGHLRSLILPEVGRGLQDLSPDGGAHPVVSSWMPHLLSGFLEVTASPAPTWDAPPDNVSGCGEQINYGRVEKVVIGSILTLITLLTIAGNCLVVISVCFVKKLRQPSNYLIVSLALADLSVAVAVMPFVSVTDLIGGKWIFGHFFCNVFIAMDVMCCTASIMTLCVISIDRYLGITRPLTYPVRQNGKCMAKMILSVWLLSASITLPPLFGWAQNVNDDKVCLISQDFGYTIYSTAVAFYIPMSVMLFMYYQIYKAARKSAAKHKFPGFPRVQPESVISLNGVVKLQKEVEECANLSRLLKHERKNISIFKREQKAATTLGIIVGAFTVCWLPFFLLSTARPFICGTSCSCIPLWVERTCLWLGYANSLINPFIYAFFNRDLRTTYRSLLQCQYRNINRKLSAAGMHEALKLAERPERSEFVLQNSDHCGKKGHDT
compound,measurement,setting,value
NC[C@H](O)c1ccc(O)c(O)c1 [Norepinephrine],PERCENT INHIBITION (displacement of specific [3H]5-HT binding),"[1]; 30 nM competitor, 5 nM [3H]5-HT, 30 min at 37° C.",0
Cc1nc2sccn2c(=O)c1CCN1CCC(=C(c2ccc(F)cc2)c2ccc(F)cc2)CC1 [Ritanserin],Ki,[1]; [9],45 ± 10 nM
c1ccc2c(N3CCNCC3)cccc2c1 [1-Naphthylpiperazine],Ki,[1]; [10],83 ± 19 nM
"Nc1nc2c(ncn2[C@@H]2O[C@H](COP(=O)(O)OP(=O)(O)NP(=O)(O)O)[C@@H](O)[C@H]2O)c(=O)[nH]1 [Gpp(NH)p, 5′-guanylylimidodiphosphate]",reduction of high affinity [3H]5-HT binding,[1],75%
CN1[C@@H]2CC[C@H]1C[C@@H](OC(=O)c1c[nH]c3ccccc13)C2 [ICS 203930],PERCENT INHIBITION (displacement of specific [3H]5-HT binding),"[1]; 1000 nM competitor, 5 nM [3H]5-HT, 30 min at 37° C.",10
same,inhibitory effect on the 5-HT response,[2]; 100 μM,weak inhibitory effect
same,% INHIBITION OF 5-HT RESPONSE,"[2]; 100 μM drug, cAMP response to 1 μM 5-HT",36 ± 3.0%
same,FOLD cAMP STIMULATION,"[2]; 100 μM drug, relative to basal levels",0
same,activity at the clone hp78a receptor,[2],either poorly active or inactive
COC(=O)[C@@H]1[C@H]2C[C@H]3c4[nH]c5ccccc5c4CCN3C[C@@H]2CC[C@@H]1O [Yohimbine],Ki,[1]; [10],2850 ± 354 nM
CCCN(CCC)C1CCc2cccc(O)c2C1 (stereo not drawn),stimulation of basal cAMP release,[2],about 2 fold
same,INTRINSIC ACTIVITY,[3],PARTIAL AGONIST
same,functional character,[3],weak agonist
same,Emax* (% 5-HT RESPONSE),[3],51 ± 14 % 5-HT RESPONSE
CC(C)NCC(O)COc1cccc2ccccc12 (stereo not drawn) [Propranolol],PERCENT INHIBITION (displacement of specific [3H]5-HT binding),"[1]; 100 nM competitor, 5 nM [3H]5-HT, 30 min at 37° C.",0
CN1C[C@H](CNC(=O)OCc2ccccc2)C[C@@H]2c3cccc4c3c(cn4C)C[C@H]21 [Metergoline],Ki,[1]; [9],6.4 ± 1.4 nM
same,antagonism of the 5-HT response,[2]; 10 μM,almost completely
same,FOLD cAMP STIMULATION,"[2]; 10 μM drug, relative to basal levels",0
CN1C[C@H](C(=O)N[C@]2(C)O[C@@]3(O)[C@@H]4CCCN4C(=O)[C@H](Cc4ccccc4)N3C2=O)C=C2c3cccc4[nH]cc(c34)C[C@H]21 [Ergotamine],Ki,[1]; Ki (apparent dissociation constants for clone hp78a),15 nM
same,Ki,[1]; Ki for clone hp78a,< 20 nM
same,effect on specific [3H]5-CT binding,"[4]; 1 μM, 0.5 nM [3H]5-CT",completely eliminated
CC(C)NCC(O)COc1cccc2[nH]ccc12 (racemic) [Pindolol],Ki,[1]; [10],> 5000 nM
CC[C@@H](CO)NC(=O)[C@@H]1C=C2c3cccc4c3c(cn4C)C[C@H]2N(C)C1 [Methysergide],Ki,[1]; [10],83 ± 5 nM
same,FOLD cAMP STIMULATION,[2],1.7 ± 0.43
same,antagonism of the 5-HT response,[2],almost completely
same,antagonism,[5],Potent antagonism
COc1cc(CC(C)N)c(OC)cc1I (stereo not drawn) [DOI],PERCENT INHIBITION (displacement of specific [3H]5-HT binding),[1],20
CN1C[C@@H](NS(=O)(=O)N(C)C)C[C@@H]2c3cccc4c3c(cn4C)C[C@H]21 [Mesulergine],Emax,"[3]; L-M(TK-), read-out: Emax* (% 5-HT RESPONSE)",0%
same,Kb,[3],20 ± 1 nM
NCCc1c[nH]c2ccc(O)cc12 [[^3H]5-HT],Kd,[6],~200 nM
same,Kd,[7],10 nM
COc1cc(N)c(Cl)cc1C(=O)NC1CN2CCC1CC2 (stereo not drawn) [Zacopride],Ki,[1]; [10],> 5000 nM
same,activity at the clone hp78a receptor,[2],either poorly active or inactive
CCN(CC)C(=O)[C@@H]1C=C2c3cccc4[nH]c(Br)c(c34)C[C@H]2N(C)C1 [2-Bromo-LSD],Ki,[1]; [10],30 ± 10 nM
same,% INHIBITION OF 5-HT RESPONSE,[2],95 ± 4.5%
same,FOLD cAMP STIMULATION,"[2]; 1 μM drug, relative to basal levels",0
same,antagonism,[5],Potent antagonism
same,INTRINSIC ACTIVITY,[3],ANTAGONIST
same,Kb,[3],12 ± 3 nM
same,Emax* (% 5-HT RESPONSE),[3],0 % 5-HT RESPONSE
"NCCc1c[nH]c2ccc(O)cc12 [5-HT, 5-Hydroxytryptamine]",increase in cAMP release over basal levels,[2],20 fold
same,stimulation of basal cAMP release,[2],7 fold
same,stimulation of intracellular cAMP accumulation,[2]; coincubation of 1 μM FSK and 1 μM 5-HT,75 fold
same,EC50,[5]; read-out: EC50 value for 5-HT stimulation of cAMP,500 to 1000 nM
same,INTRINSIC ACTIVITY,[3],AGONIST (AGONIST indicates that the maximal response to the drug was at least 80% of the maximum response obtained with 5-HT)
same,effect on basal or FSK-stimulated adenylate cyclase activity,[8],no effect
Nc1ccc(CCN2CCN(c3cccc(C(F)(F)F)c3)CC2)cc1 [PAPP],PERCENT INHIBITION (displacement of specific [3H]5-HT binding),[1],21
same,effect on [3H]5-CT binding,[4]; masks: 100 nM PAPP and 160 nM (−)pindolol added together,markedly reduced
